From patent US5179105A, “Phenoxyacetic acid compounds, method for production thereof, and pharmaceutical preparations containing same” (Terumo Kabushiki Kaisha, priority 1990, dated 1993)

How the values were obtained:
Design in all cases: species or system Hartley type male guinea pigs
[1] = test system: thromboxane A2; assay: in vitro antagonistic action to thromboxane A2 (U-46619-induced shrinkage of excised bronchial segments); details: guinea pig bronchial segments, U-46619 10^-7; read-out: antagonistic action to Tx A2 (IC50)
Procedure: (§1) The IC50 values indicative of the in vitro antagonistic actions of the compounds of this invention to thromboxane A2 and leukotriene D4 were determined by the use of the following test system.
(§2) Bronchial segments and ileal segments excised from Hartley type male guinea pigs 350 to 450 g in body weight were suspended under respective loads of 0.3 g and 0.5 g in Magnus baths containing Tyrode solution and kept exposed to passage therethrough of a mixed gas consisting of 95% of oxygen and 5% of carbon dioxide. After the suspended segments were stabilized for about one hour, U-46619 (equivalent to thromboxane A2, produced by Kaiman K. K.) was added in a concentration of 10^-7 to the bath containing the bronchial segments and leukotriene D4 (produced by Wako Pure Chemicals Co., Ltd.) in a concentration of 10^-8 M to the bath containing the […] contrast to the amounts of shrinkage produced in the bronchial segments and ileal segments, the amounts of shrinkage produced by U-46619 in the bronchial segments and the amounts of shrinkage produced by leukotriene D4 in the ileal segments both in the presence of the compounds of this invention added in varying concentrations were measured. The IC50 values were computed based on the results of the measurement.

[2] = test system: leukotriene D4; assay: in vitro antagonistic action to leukotriene D4 (LTD4-induced shrinkage of excised ileal segments); details: guinea pig ileal segments, leukotriene D4 10^-8 M
Procedure: as §1, §2

[3] = test system: leukotriene D4; assay: in vitro antagonistic action to leukotriene D4 (LTD4-induced shrinkage of excised bronchial segments); details: guinea pig bronchial segments, leukotriene D4 10^-8 M
Procedure: as §1, §2

Row | IC50 [1] [nM] | IC50 [2] [nM] | IC50 [3] [nM] | Compound
1 | 4.5 | 3800 | – | CCCc1c(OCC(=O)Nc2cc(CCCS(=O)(=O)c3ccc(Cl)cc3)ccc2OCC(=O)O)ccc(C(C)=O)c1O
2 | 50 | 430 | 70 | CCCc1c(OCCCC(=O)Nc2cc(CCCS(=O)(=O)c3ccc(Cl)cc3)ccc2OCC(=O)O)ccc(C(C)=O)c1O
3 | 26 | 370 | – | O=C(O)COc1ccc(CCCS(=O)(=O)c2ccc(Cl)cc2)cc1NC(=O)c1ccc(OCc2ccc3ccccc3n2)cc1
4 | 57 | 1.3 | 4 | O=C(O)COc1ccc(CCCS(=O)(=O)c2ccc(Cl)cc2)cc1NC(=O)c1cccc(OCc2ccc3ccccc3n2)c1 [drawing 21]
5 | 30 | – | 150 | O=C(O)COc1ccc(CCCS(=O)(=O)c2ccc(Cl)cc2)cc1NC(=O)c1cccc(OCc2ccc3ccccc3n2)c1 [drawing 22]
